This assay concerns the target Endothelial lipase (EL) (Homo sapiens (Human), UniProt Q9Y5X9). As to the kind of experiment: Endothelial lipase (EL) enzymatic assay with fluorescent substrate A10070 in DMPG vesicles. It is filed as biochemical. An outline of the steps: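 Substrate A10070 sits in sonicated DMPG vesicles at 0.11 mole fraction. Lipase and compound preincubated 30 min, 37° C, in HEPES pH 8.0 buffer with CaCl2.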

We go through 29 compounds from patent US10173991B2, “Sulfone amide linked benzothiazole inhibitors of endothelial lipase” (BRISTOL-MYERS SQUIBB COMPANY, priority 2014, dated 2019).

Structures are written as SMILES. Like-named read-outs stand apart in the source and are kept apart here.

By IC50 is commonly meant the concentration that inhibits the measured activity by half.

Sequence of Endothelial lipase (EL) (Q9Y5X9 21-500): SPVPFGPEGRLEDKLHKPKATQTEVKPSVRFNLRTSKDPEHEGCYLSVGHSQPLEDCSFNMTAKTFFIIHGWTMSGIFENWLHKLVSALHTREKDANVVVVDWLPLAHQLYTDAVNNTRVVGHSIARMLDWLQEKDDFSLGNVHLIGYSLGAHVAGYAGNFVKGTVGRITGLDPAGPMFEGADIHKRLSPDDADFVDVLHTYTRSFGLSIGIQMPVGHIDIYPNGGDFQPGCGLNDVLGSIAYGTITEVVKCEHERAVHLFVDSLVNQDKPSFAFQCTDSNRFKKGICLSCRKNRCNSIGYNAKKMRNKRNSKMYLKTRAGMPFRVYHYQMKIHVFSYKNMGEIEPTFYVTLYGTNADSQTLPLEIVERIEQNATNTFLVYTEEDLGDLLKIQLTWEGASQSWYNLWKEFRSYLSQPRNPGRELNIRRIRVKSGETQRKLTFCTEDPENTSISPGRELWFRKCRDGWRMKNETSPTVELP

With `CC(C)S(=O)(=O)C(C(=O)NCC(=O)NC1CC1)c1nc2c(F)cc(-c3cnc(-c4ccccc4)nc3)cc2s1` (centres unmarked) [Example 282, N-[(cyclopropyl-carbamoyl)methyl]-2-[4-fluoro-6-(2-phenylpyrimidin-5-yl)-1,3-benzothiazol-2-yl]-2-(propane-2-sulfonyl)acetamide], it took 0.022 µM to reach half-maximal inhibition (IC50). In turn, `CC(C)S(=O)(=O)C(C(=O)NCC(=O)NC1CC1)c1nc2c(F)cc(-c3ccc(N4CCCC4=O)cc3)cc2s1` (centres unmarked) [Example 283, N-[(cyclopropyl-carbamoyl)methyl]-2-{4-fluoro-6-[4-(2-oxopyrrolidin-1-yl)phenyl]-1,3-benzothiazol-2-yl}-2-(propane-2-sulfonyl)acetamide] registered an IC50 of 0.01 µM.

Consider `CC(C)S(=O)(=O)C(C(=O)NCC(=O)NC1CC1)c1nc2c(F)cc(-c3ccc(C(=O)N4CCC4)cc3)cc2s1` (centres unmarked) [Example 284, 2-{6-[4-(azetidine-1-carbonyl)phenyl]-4-fluoro-1,3-benzothiazol-2-yl}-N-[(cyclopropyl-carbamoyl)methyl]-2-(propane-2-sulfonyl)acetamide], for which 0.012 µM corresponded to half-maximal inhibition (IC50). Still for that read-out and setting: then `Cc1cc2nc(C(C(=O)NCC(=O)NC3CC3)S(=O)(=O)C(C)C)sc2cc1-c1ccc(NC(=O)OCc2ccccc2)cc1` (centres unmarked) [Example 285, benzyl N-{4-[2-({[(cyclopropyl-carbamoyl)methyl]carbamoyl} (propane-2-sulfonyl)methyl)-5-methyl-1,3-benzothiazol-6-yl]phenyl}carbamate], with 0.012 µM; and `COCCS(=O)(=O)C(C(=O)NCC(=O)NC1CC1)c1nc2cc(F)c(-c3ccc(-c4noc(=O)[nH]4)cc3)cc2s1` (centres unmarked) [Example 286, N-[(cyclopropyl-carbamoyl)methyl]-2-{5-fluoro-6-[4-(5-oxo-4,5-dihydro-1,2,4-oxadiazol-3-yl)phenyl]-1,3-benzothiazol-2-yl}-2-(2-methoxyethane-sulfonyl)acetamide], with 0.008 µM. The compound `CC(C)OCCNC(=O)CNC(=O)C(c1nc2ccc(-c3ccc4c(c3)CNC4=O)cc2s1)S(C)(=O)=O` (centres unmarked) [Example 287, N-(2-((2-Isopropoxyethyl)amino)-2-oxoethyl)-2-(methylsulfonyl)-2-(6-(1-oxoisoindolin-5-yl)benzo[d]thiazol-2-yl)acetamide] returned an IC50 (EL from conditioned media of HT-1080 cells, 30 min preincubation at 37° C.) of 0.0029 µM. `COCCS(=O)(=O)C(C(=O)NCC(=O)NC1CC1)c1nc2ccc(-c3ccncc3Cl)cc2s1` (centres unmarked) [Example 288, 2-[6-(3-chloropyridin-4-yl)-1,3-benzothiazol-2-yl]-N-[(cyclopropyl-carbamoyl)methyl]-2-(2-methoxyethane-sulfonyl)acetamide] came in with an IC50 of 0.015 µM. For the compound `COCCS(=O)(=O)C(C(=O)NCC(=O)NC1CC1)c1nc2ccc(-c3ccncc3)cc2s1` (centres unmarked) [Example 289, N-[(cyclopropyl-carbamoyl)methyl]-2-(2-methoxyethane-sulfonyl)-2-[6-(pyridin-4-yl)-1,3-benzothiazol-2-yl] acetamide], the half-maximal inhibitory concentration (IC50) came to 0.023 µM.

`COCCS(=O)(=O)C(C(=O)NCC(=O)NC1CC1)c1nc2ccc(-c3ccnc(C(F)(F)F)c3)cc2s1` (centres unmarked) [Example 290, N-[(cyclopropyl-carbamoyl)methyl]-2-(2-methoxyethane-sulfonyl)-2-{6-[2-(trifluoromethyl)pyridin-4-yl]-1,3-benzothiazol-2-yl} acetamide]: the IC50 came out at 0.023 µM. The compound `COCCS(=O)(=O)C(C(=O)NCC(=O)NC1CC1)c1nc2ccc(-c3ccc(OC(C)C)nc3)cc2s1` (centres unmarked) [Example 291, N-[(cyclopropyl-carbamoyl)methyl]-2-(2-methoxyethane-sulfonyl)-2-{6-[6-(propan-2-yloxy)pyridin-3-yl]-1,3-benzothiazol-2-yl} acetamide] returned an IC50 of 0.029 µM.

`COCCS(=O)(=O)C(C(=O)NCC(=O)NC1CC1)c1nc2ccc(-c3cnnc(C)c3)cc2s1` (centres unmarked) [Example 292, N-[(cyclopropyl-carbamoyl)methyl]-2-(2-methoxyethane-sulfonyl)-2-[6-(6-methylpyridazin-4-yl)-1,3-benzothiazol-2-yl]acetamide] yielded an IC50 of 0.031 µM.

Take `CCOc1ncccc1-c1ccc2nc(C(C(=O)NCC(=O)NC3CC3)S(=O)(=O)CCOC)sc2c1` (centres unmarked) [Example 293, N-[(cyclopropyl-carbamoyl)methyl]-2-[6-(2-ethoxypyridin-3-yl)-1,3-benzothiazol-2-yl]-2-(2-methoxyethane-sulfonyl)acetamide]: inhibition was half-maximal at 0.033 µM (IC50). For `COCCS(=O)(=O)C(C(=O)NCC(=O)NC1CC1)c1nc2ccc(-c3cnc(F)c(C)c3)cc2s1` (centres unmarked) [Example 294, N-[(cyclopropyl-carbamoyl)methyl]-2-[6-(6-fluoro-5-methylpyridin-3-yl)-1,3-benzothiazol-2-yl]-2-(2-methoxyethane-sulfonyl)acetamide], it took 0.036 µM to reach half-maximal inhibition (IC50). The IC50 values of the last two compounds are within 1.5-fold of each other. For `COCCS(=O)(=O)C(C(=O)NCC(=O)NC1CC1)c1nc2ccc(-c3ccc(C(F)(F)F)nc3)cc2s1` (centres unmarked) [Example 296, N-[(cyclopropyl-carbamoyl)methyl]-2-(2-methoxyethane-sulfonyl)-2-{6-[6-(trifluoromethyl)pyridin-3-yl]-1,3-benzothiazol-2-yl}acetamide], half-maximal inhibition (IC50) was put at 0.069 µM. `COCCS(=O)(=O)C(C(=O)NCC(=O)NC1CC1)c1nc2ccc(-c3cccnc3Cl)cc2s1` (centres unmarked) [Example 297, 2-[6-(2-chloropyridin-3-yl)-1,3-benzothiazol-2-yl]-N-2-(2-methoxyethane-sulfonyl)acetamide] gave a concentration for half-maximal inhibition (IC50) of 0.085 µM. On the same count and under the same terms, as for `CCOc1ccc(-c2ccc3nc(C(C(=O)NCC(=O)NC4CC4)S(=O)(=O)CCOC)sc3c2)cn1` (centres unmarked) [Example 299, N-[(cyclopropyl-carbamoyl)methyl]-2-[6-(6-ethoxypyridin-3-yl)-1,3-benzothiazol-2-yl]-2-(2-methoxyethane-sulfonyl)acetamide], the figure is 0.118 µM; as for `COCCS(=O)(=O)C(C(=O)NCC(=O)NC1CC1)c1nc2ccc(-c3ccc(C4CC4)nc3)cc2s1` (centres unmarked) [Example 300, N-[(cyclopropyl-carbamoyl)methyl]-2-[6-(6-cyclopropyl-pyridin-3-yl)-1,3-benzothiazol-2-yl]-2-(2-methoxyethane-sulfonyl)acetamide], 0.125 µM; as for `COCCS(=O)(=O)C(C(=O)NCC(=O)NC1CC1)c1nc2ccc(-c3cnc(C(F)(F)F)nc3)cc2s1` (centres unmarked) [Example 301, N-[(cyclopropyl-carbamoyl)methyl]-2-(2-methoxyethane-sulfonyl)-2-{6-[2-(trifluoromethyl)pyrimidin-5-yl]-1,3-benzothiazol-2-yl}acetamide], 0.155 µM. As to `COCCS(=O)(=O)C(C(=O)NCC(=O)NC1CC1)c1nc2ccc(-c3ccc(F)nc3F)cc2s1` (centres unmarked) [Example 302, N-[(cyclopropyl-carbamoyl)methyl]-2-[6-(2,6-difluoropyridin-3-yl)-1,3-benzothiazol-2-yl]-2-(2-methoxyethane-sulfonyl)acetamide], the IC50 stood at 0.16 µM.

In turn, `COCCS(=O)(=O)C(C(=O)NCC(=O)NC1CC1)c1nc2ccc(-c3ccc(Cl)cn3)cc2s1` (centres unmarked) [Example 303, 2-[6-(5-chloropyridin-2-yl)-1,3-benzothiazol-2-yl]-N-[(cyclopropyl-carbamoyl)methyl]-2-(2-methoxyethane-sulfonyl)acetamide] showed an IC50 of 0.247 µM. `COCCS(=O)(=O)C(C(=O)NCC(=O)NC1CC1)c1nc2ccc(-c3cncc(Cl)c3)cc2s1` (centres unmarked) [Example 304] displayed an IC50 of 0.052 µM. Take `COCCS(=O)(=O)C(C(=O)NCC(=O)NC1CC1)c1nc2ccc(-c3ccccc3)cc2s1` (centres unmarked) [Example 305, N-[(cyclopropyl-carbamoyl)methyl]-2-(2-methoxyethane-sulfonyl)-2-(6-phenyl-1,3-benzothiazol-2-yl) acetamide]: the midpoint of inhibition, the IC50, lay at 0.007 µM.

`COCCNC(=O)c1ccc(-c2ccc3nc(C(C(=O)NCC(=O)NC4CC4)S(=O)(=O)CCOC)sc3c2)cc1` (centres unmarked) [Example 306, 4-[2-({[(cyclopropyl-carbamoyl)methyl]carbamoyl}(2-methoxyethane-sulfonyl)methyl)-1,3-benzothiazol-6-yl]-N-(2-methoxyethyl) benzamide]: half-maximal inhibition (IC50) required 0.013 µM. The same measure, in the same setting: as for `COCCS(=O)(=O)C(C(=O)NCC(=O)NC1CC1)c1nc2ccc(-c3ccc(F)cc3)cc2s1` (centres unmarked) [Example 307, N-[(cyclopropyl-carbamoyl)methyl]-2-[6-(4-fluorophenyl)-1,3-benzothiazol-2-yl]-2-(2-methoxyethane-sulfonyl)acetamide], the figure is 0.015 µM; as for `COCCS(=O)(=O)C(C(=O)NCC(=O)NC1CC1)c1nc2ccc(-c3ccc(COC)cc3)cc2s1` (centres unmarked) [Example 308, N-[(cyclopropyl-carbamoyl)methyl]-2-(2-methoxyethane-sulfonyl)-2-{6-[4-(methoxymethyl)phenyl]-1,3-benzothiazol-2-yl}acetamide], 0.027 µM. `COCCS(=O)(=O)C(C(=O)NCC(=O)NC1CC1)c1nc2ccc(-c3ccc(C(=O)N4CCOCC4)cc3)cc2s1` (centres unmarked) [Example 309, N-[(cyclopropyl-carbamoyl)methyl]-2-(2-methoxyethane-sulfonyl)-2-{6-[4-(morpholine-4-arbonyl)phenyl]-1,3-benzothiazol-2-yl}acetamide] showed an IC50 of 0.05 µM. This IC50 is about 1.9-fold higher than that of the compound before. In the case of `COCCS(=O)(=O)C(C(=O)NCC(=O)NC1CC1)c1nc2ccc(-c3cncnc3)cc2s1` (centres unmarked) [Example 310, N-[(cyclopropyl-carbamoyl)methyl]-2-(2-methoxyethane-sulfonyl)-2-[6-(pyrimidin-5-yl)-1,3-benzothiazol-2-yl]acetamide], the IC50 came to 0.093 µM. Compared with the last compound, the IC50 is about 1.9-fold higher. Same read-out and setting: as for `COCCS(=O)(=O)C(C(=O)NCC(=O)NC1CC1)c1nc2ccc(-c3ccnc(F)c3)cc2s1` (centres unmarked) [Example 311, N-[(cyclopropyl-carbamoyl)methyl]-2-[6-(2-fluoropyridin-4-yl)-1,3-benzothiazol-2-yl]-2-(2-methoxyethane-sulfonyl)acetamide], the figure is 0.094 µM. On the same count and under the same terms, as for `COCCS(=O)(=O)C(C(=O)NCC(=O)NC1CC1)c1nc2ccc(-c3cccc(Cl)n3)cc2s1` (centres unmarked) [Example 312, 2-[6-(6-chloropyridin-2-yl)-1,3-benzothiazol-2-yl]-N-[(cyclopropyl-carbamoyl)methyl]-2-(2-methoxyethane-sulfonyl)acetamide], the figure is 0.188 µM.
